Experimental data reported in article PMC10671431, “New Derivatives of N-Hydroxybutanamide: Preparation, MMP Inhibition, Cytotoxicity, and Antitumor Activity” (International Journal of Molecular Sciences, 2023).

Tests used:
B16 melanoma [1] = assay: Antimetastatic activity in vivo, lung metastases; design: species or system mouse; conditions: lungs, B16 melanoma, BDF1 mice, doses as in Table 5; for Number of Animals without Metastases: of 6 animals in the group
Method: (§1) Antitumor activity in vivo. The B16 mouse melanoma was used as a tumor model. The B16 melanoma tumor strain was induced in male BDF1 mice by subcutaneous inoculation of 0.2–0.5 mL of a suspension of tumor tissue in medium 199 at intervals of 12–16 days. For the experiments, BDF1 mice were inoculated with 0.3 mL of a suspension of tumor tissue diluted in a 0.9% NaCl solution at a ratio of 1:5 subcutaneously on the right side.
(§2) Compound 4 was dissolved in a 0.9% NaCl solution with 1% DMSO. […] Control animals were injected intraperitoneally with 1% DMSO in saline (0.9% NaCl) in the same volumes as the test compounds.
And MNMcont. are the mean number of metastases in the experimental and control groups, respectively.

B16 melanoma [2] = assay: Antitumor activity in vivo, tumor growth; design: species or system mouse; conditions: BDF1 mice, i.p., CP 100 mg/kg days 2, 7, cPt 4 mg/kg days 2–9, 4 300 mg/kg days 2–9
Method: as §1, §2
Tumor growth was monitored on days 0, 6, 8, 10, 13, 15, 17, and 20 by measuring the tumor size with a digital caliper. The mean tumor diameter was calculated using the formula:D = 3√a × b × c,(2) where a, b, and c are mutually perpendicular tumor diameters.

A-172 = assay: Cytotoxicity, MTT test; format: cell-based, human
Method: (§3) Cell culture. A-172 (human glioblastoma cells), HepG2 (human hepatocellular carcinoma cells), M-HeLa (human cervical adenocarcinoma cells, M subclone), Vero (African green monkey kidney epithelial cells), and FetMSC (human embryonic mesenchymal stem cells) were purchased from the Russian Collection of Cell Cultures of Vertebrates (Institute of Cytology RAS, St. Petersburg, Russia). The U-251 MG cell line (human glioblastoma-astrocytoma) was purchased from the European Collection of Authenticated Cell Cultures (Salisbury, UK). All cells were grown at 37 °C in an atmosphere of 5% CO2. A-172 and Vero cells were cultured in DMEM medium (PanEco, Moscow, Russia). HepG2, HeLa, and U-251 MG cells were cultured in EMEM medium (PanEco). FetMSC cells were cultured in F12/DMEM medium (PanEco). All incubation media were supplemented with 10% fetal calf serum (BioWest, Nuaillé, France), 50 U/mL penicillin, and […] streptomycin (PanEco). Additionally, media for HeLa, HepG2, and U-251 MG cells were supplemented with 2 mM glutamine (PanEco) and 1% essential amino acids (PanEco), media for A-172 and Vero cells were supplemented with 4 mM glutamine, and the medium for FetMSC cells was supplemented with 3 mM glutamine. The medium for U-251 MG cells was additionally supplemented with 1 mM sodium pyruvate (PanEco).
(§4) Cytotoxicity studies. The cytotoxicity of the compounds was assessed using the MTT test. Cells were seeded into 96-well plates at varying concentrations of 5 × 10^4 cells/mL (A-172, Vero and HeLa), 7 × 10^4 cells/mL (HepG2 and U-251 MG), and 10 × 10^4 cells/mL (FetMSC). The studied compounds were added to the incubation medium 24 h after seeding at concentrations ranging from 7.8 μM to 500 μM. All compounds were dissolved in DMSO and diluted with the incubation medium to their final concentrations just before use. The incubation medium in wells was aspirated and replaced with medium containing the studied compounds. The final concentration of DMSO in all samples was 0.1%. Control samples were treated with 0.1% DMSO. After 72 h of exposure, 3-(4,5-dimethylthiazol-2-yl)-2,5-diphenyl-2H-tetrazolium bromide (MTT) (Dia-M, Moscow, Russia) was added to the incubation medium at a concentration of 0.5 mg/mL. The resulting MTT-formazan crystals were dissolved in DMSO. The optical density was measured at 570 nm with a background wavelength of 620 nm using a Spark 10M plate reader. IC50 values were determined using a median effect analysis from the dose–effect relationships.

HeLa = assay: Cytotoxicity, MTT test; format: cell-based, human; conditions: 72 h of exposure
Method: as §3, §4

HepG2 = assay: Cytotoxicity, MTT test; format: cell-based, human
Method: as §3, §4

Vero = assay: Cytotoxicity, MTT test; format: cell-based, African green monkey; conditions: 72 h of exposure
Method: as §3, §4

[3] = Cytotoxicity, MTT test, statements on all cell lines studied; format: cell-based; conditions: human, African green monkey, 72 h of exposure, summary over cell lines, read-out: cytotoxicity IC50, cells in general
Method: as §3, §4

FetMSC = assay: Cytotoxicity, MTT test; format: cell-based, human; conditions: Homo sapiens; 72 h of exposure, MTT
Method: as §3, §4

U-251 MG = assay: Cytotoxicity, MTT test; format: cell-based; conditions: Homo sapiens, 72 h of exposure
Method: as §3, §4

MMP-3 = target: T1, MMP-3 (Homo sapiens, UniProt P08254); assay: MMP activity assay, fluorogenic substrate (MMP Inhibitor Profiling Kit); format: biochemical; conditions: read-out: MMP-inhibiting activity IC50, MMP-3
T1 construct: the BML- prefix points to Enzo Life Sciences, own knowledge BML-AK308
Method: (§5) Determination of MMP activity. A fluorescently labeled substrate probe containing a fluorescent label and a fluorescence quencher, was utilized for this study. […] Enzyme activity was assessed using the MMP Inhibitor Profiling Kit (Product # BML-AK308, New York, NY, USA) according to the manufacturer’s recommendations. The nonspecific inhibitor NNGH was used as a positive control. The fluorescence of the fluorogenic substrate OmniMMP^TM RED was measured at wavelengths Ex/Em = 545/576 nm using a Spark 10M multimode plate reader (Tecan, Zurich, Switzerland). Reaction rates were expressed in relative fluorescence units (RFUs) per minute. The activity of MMPs in the presence of the studied compounds was determined as follows:Activity, % = (Vinh/Vcont) × 100,(1) where V is the initial reaction rate (RFUs/min) in the presence (Vinh) and absence (Vcont) of the studied compounds.
(§6) All tested compounds were dissolved in DMSO. The final concentration of DMSO in all samples was 0.1%. Control samples were treated with 0.1% DMSO.

MMP-2 = target: T2, MMP-2 (Homo sapiens, UniProt P08253); assay: as above; format: biochemical; conditions: read-out: MMP-inhibiting activity IC50, MMP-2
T2 construct: the BML- prefix points to Enzo Life Sciences, own knowledge BML-AK308
Method: as §5, §6

MMP-9 = target: T3, MMP-9 (Homo sapiens, UniProt P14780); assay: as above; format: biochemical; conditions: read-out: MMP-inhibiting activity IC50, MMP-9
T3 construct: the BML- prefix points to Enzo Life Sciences, own knowledge BML-AK308
Method: as §5, §6

MMP-14 = target: T4, MMP-14 (Homo sapiens, UniProt P50281); assay: as above; format: biochemical; conditions: read-out: MMP-inhibiting activity IC50, MMP-14
T4 construct: the BML- prefix points to Enzo Life Sciences, own knowledge BML-AK308
Method: as §5, §6

[4] = Homo sapiens, A 172, 72 h of exposure
[5] = Homo sapiens, HepG2, 72 h of exposure

T1 sequence (P08254 100-272 limits assumed): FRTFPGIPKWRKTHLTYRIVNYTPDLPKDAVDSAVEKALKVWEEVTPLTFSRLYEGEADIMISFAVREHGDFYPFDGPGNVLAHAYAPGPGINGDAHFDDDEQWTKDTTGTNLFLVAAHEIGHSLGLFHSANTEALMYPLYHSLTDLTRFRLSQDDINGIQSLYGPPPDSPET
T3 sequence (P14780 107-444 limits assumed): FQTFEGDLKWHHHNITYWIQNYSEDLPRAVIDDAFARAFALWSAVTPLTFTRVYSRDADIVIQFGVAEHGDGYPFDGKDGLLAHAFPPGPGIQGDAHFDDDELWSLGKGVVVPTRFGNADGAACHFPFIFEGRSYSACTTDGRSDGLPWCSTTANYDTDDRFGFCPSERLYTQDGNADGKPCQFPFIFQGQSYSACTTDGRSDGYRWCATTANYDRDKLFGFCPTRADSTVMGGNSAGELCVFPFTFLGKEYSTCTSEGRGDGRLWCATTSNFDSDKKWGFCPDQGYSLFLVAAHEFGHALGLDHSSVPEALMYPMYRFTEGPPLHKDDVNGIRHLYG
T2 sequence (P08253 110-446 limits assumed): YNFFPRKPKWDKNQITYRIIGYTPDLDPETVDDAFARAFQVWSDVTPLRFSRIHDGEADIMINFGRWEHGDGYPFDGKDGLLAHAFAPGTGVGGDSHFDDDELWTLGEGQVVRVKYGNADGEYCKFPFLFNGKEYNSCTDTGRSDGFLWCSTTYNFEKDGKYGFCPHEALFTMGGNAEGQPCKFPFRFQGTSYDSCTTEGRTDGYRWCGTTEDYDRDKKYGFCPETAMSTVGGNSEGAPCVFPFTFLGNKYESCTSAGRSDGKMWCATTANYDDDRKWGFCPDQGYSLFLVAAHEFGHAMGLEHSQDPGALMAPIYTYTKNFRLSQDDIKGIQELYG

Row | Structure (SMILES) | % Inhibition of Metastases (B16 melanoma [1]) [%] | Mean Number of Metastases per Mouse (B16 melanoma [1]) | Metastasis Rate, % (B16 melanoma [1]) [%] | Number of Animals without Metastases (B16 melanoma [1]) | Tumor Growth Inhibition, % Day 10 (B16 melanoma [2]) [%] | Tumor Growth Inhibition, % Day 13 (B16 melanoma [2]) [%] | Tumor Growth Inhibition, % Day 15 (B16 melanoma [2]) [%] | Tumor Growth Inhibition, % Day 17 (B16 melanoma [2]) [%] | Tumor Growth Inhibition, % Day 20 (B16 melanoma [2]) [%] | IC50 at 72 h [3] [µM] | IC50 (FetMSC) [µM] | IC50 (A-172; [4]) [µM] | IC50 (HeLa; Homo sapiens, HeLa) [µM] | IC50 (HepG2; [5]) [µM] | IC50 (U-251 MG) [µM] | IC50 (MMP-3) [µM] | IC50 (MMP-2) [µM] | IC50 (MMP-9) [µM] | IC50 (MMP-14) [µM] | IC50 (Vero; Chlorocebus sabaeus, Vero) [µM] | other results
1 | O=P1(N(CCCl)CCCl)NCCCO1 (stereo not shown) [CP, cyclophosphamide] | 39.3 | 7.1 ± 2.2 | 100 | 0 | 52.94 | 38.10 | 43.20 | 27.43 | 14.02 |  |  |  |  |  |  |  |  |  |  |  | 
2 | N.N.[Cl][Pt][Cl] [Cisplatin, cisplatin] | 71.9 | 3.3 ± 2.4 | 83.3 | 1 | 76.47 | 61.11 | 52.07 | 32.00 | 9.54 |  |  |  |  |  |  |  |  |  |  |  | IC50 (A-172; 72 h of exposure): 8.46 ± 0.92 µM; IC50 (HeLa): 11.7 ± 2.41 µM; IC50 (HepG2; 72 h of exposure): 13.2 ± 1.62 µM; IC50 (Vero): 10.7 ± 1.45 µM
3 | O=C(CCC(=O)NNC(=O)c1ccccc1[N+](=O)[O-])NO [Compound 1, N-hydroxy-4-[2-(2-nitrobenzoyl)hydrazinyl]-4-oxobutanamide] |  |  |  |  |  |  |  |  |  | > 100 | > 500 | > 500 | 377 ± 25.2 | 393 ± 26.2 | > 500 | > 10 | > 10 | > 10 | > 10 | > 500 | 
4 | O=C(CCC(=O)NNC(=O)c1cccc([N+](=O)[O-])c1)NO [Compound 2, N-hydroxy-4-[2-(3-nitrobenzoyl)hydrazinyl]-4-oxobutanamide] |  |  |  |  |  |  |  |  |  | > 100 | > 500 | > 500 | 185 ± 15.3 | 213 ± 15.3 | > 500 | > 10 | > 10 | > 10 | > 10 | > 500 | 
5 | O=C(CCC(=O)NNC(=O)c1ccc([N+](=O)[O-])cc1)NO [Compound 3, N-hydroxy-4-[2-(4-nitrobenzoyl)hydrazinyl]-4-oxobutanamide] |  |  |  |  |  |  |  |  |  | > 100 | > 500 | > 500 | 237 ± 14.2 | 252 ± 15.8 | > 500 | > 10 | > 10 | > 10 | > 10 | > 500 | 
